Counter-ions that a name gives are not always drawn. Like-named read-outs stand apart in the source and are kept apart here.
Legend:
rats = assay: antidepressive action: suppression of ptosis, seeking behavior, motility and sensitivity to stimulus in rats given 2-hydroxy-2-ethyl-3-isobutyl-9,10-dimethoxy-1,2,3,4,6,7-hexahydro-11bH-benzo[a,d]quinolizine hydrochloride; type: in vivo; conditions: 3 x 50 mg/kg p.o.; for Activity in % compared to Amitriptyline: Amitriptyline 100%
Protocol: The same dosage was administered to a control group of 5 non-pretreated rats. The ratings include central and peripheral symptoms, which are characteristic for tricyclic antidepressants [cf. Ann. N.Y. Acad. Sci. 96, 279 (1962)]. […] These changes were recorded according to a rating scheme which utilized numbers. […] The stated percentages are compared with the values for Amitriptyline* (Amitriptyline 100%).

salivation in rabbits = assay: anticholinergic action: inhibition of pilocarpine-increased salivation in rabbits under light urethane narcosis; type: in vivo; conditions: for inhibition at 3 mg/kg: Oryctolagus cuniculus, 3 mg/kg i.v., pilocarpine 5 mg/kg s.c.
Protocol: The low anticholinergic action can be shown by the lack of salivation inhibition in rabbits: The salivation in rabbits under light urethane narcosis was increased by pilocarpine injection (5 mg/kg. s.c.) and the amount of saliva was measured at 5-minute intervals. The inhibition of salivation is expressed as a percentage based upon the salivation of animals which only received pilocarpine.

mice = assay: acute toxicity in mice (24-hour values); conditions: mouse, in vivo
Text: (§1) The low toxicity of the compounds of the invention can be illustrated by the acute toxicity of 1-methyl-10,11-dihydro-5-(3-dimethylaminopropyl)-5H-dibenzo[a,d]cycloheptene hydrochloride in mice (24-hour values): […]

[1] = acute toxicity in mice (24-hour values); conditions: mouse, in vivo, mice, 24-hour values
Text: as §1

For CNCCCC1c2ccccc2CCc2c(C)cccc21.Cl (stereo not shown) [1-Methyl-10,11-dihydro-5-(3-methylaminopropyl)-5H-dibenzo[a,d]cycloheptene hydrochloride], the “Activity in % compared to Amitriptyline” value (rats) was 180% and the inhibition at 3 mg/kg (salivation in rabbits) was 40%.

For Cc1cccc2c1CCc1ccccc1C2=CCCN(C)C.Cl [1-methyl-10,11-dihydro-5-(3-dimethylaminopropylidene)-5H-dibenzo[a,d]cycloheptene hydrochloride], the “Activity in % compared to Amitriptyline” value (rats) was 220% and the inhibition at 3 mg/kg (salivation in rabbits) was 50%.

With CNCCC=C1c2ccccc2CCc2c(C)cccc21.Cl [1-methyl-10,11-dihydro-5-(3-methylaminopropylidene)-5H-dibenzo[a,d]cycloheptene hydrochloride] the “Activity in % compared to Amitriptyline” value (rats) was 140% and the inhibition at 3 mg/kg (salivation in rabbits) was 50%.

In the case of CNCCC=C1c2ccccc2C=Cc2c(C)cccc21.Cl [1-methyl-5-(3-methylaminopropylidene)-5H-dibenzo[a,d]cycloheptene hydrochloride], the “Activity in % compared to Amitriptyline” value (rats) is reported as 230% and the inhibition at 3 mg/kg (salivation in rabbits) is reported as 60%.

In the case of Cc1cccc2c1C=Cc1ccccc1C2=CCCN(C)C.Cl [1-methyl-5-(3-dimethylaminopropylidene)-5H-dibenzo[a,d]cycloheptene hydrochloride], the “Activity in % compared to Amitriptyline” value (rats) is reported as 130% and the inhibition at 3 mg/kg (salivation in rabbits) is reported as 60%.

For Cc1cccc2c1C=Cc1ccccc1C2=CCC[N+](C)(C)[O-] [1-methyl-5-(3-dimethylaminopropylidene)-5H-dibenzo[a,d]cycloheptene N-oxide hydrochloride], the “Activity in % compared to Amitriptyline” value (rats) was 140% and the inhibition at 3 mg/kg (salivation in rabbits) was 14%.

In the case of CN(C)CCC=C1c2ccccc2CCc2ccccc21 [Amitriptyline, 5-(3-dimethylaminopropylidene)-dibenzo[a,d][1,4] cycloheptadiene, reference compound], the “Activity in % compared to Amitriptyline” value (rats) is reported as 100% and the inhibition at 3 mg/kg (salivation in rabbits) is reported as 96%.

For Cc1cccc2c1C=Cc1ccccc1C2=CCC[N+](C)(C)[O-] [1-methyl-5-(3-dimethylaminopropylidene)-5H-dibenzo[a,d]cycloheptene N-oxide], the “antidepressive action (in words)” value (rats) was “excellent antidepressive action”, the “antidepressive action (in words)” value (rats; listed as 1-methyl-5-(3-dimethylaminopropylidene)-5-H-dibenzo[a,d]cyclohehptene N-oxide) was “considerably increased antidepressive action” and the “salivation inhibition / anticholinergic action (in words)” value (salivation in rabbits) was “absence of substantial anticholinergic action”. The “toxicity (in words)” value (mice) was “reduced toxicity”.

For Cc1cccc2c1CCc1ccccc1C2CCCN(C)C.Cl (stereo not shown) [1-methyl-10,11-dihydro-5-(3-dimethylaminopropyl)-5H-dibenzo[a,d]cycloheptene hydrochloride], the “Activity in % compared to Amitriptyline” value (rats) was 180%, the inhibition at 3 mg/kg (salivation in rabbits) was 50% and the LD50 at 24 h ([1]; iv, i.v., read-out: LD50 i.v.) was 25 to 50 mg/kg. The LD50 at 24 h ([1]; po, p.o., read-out: LD50 p.o.) was 300 to 600 mg/kg.
